Converted amounts (≈) assume the structure as drawn. “Also recorded” adds a separate entry of the source.

One may read the Cmax as the peak of the concentration-time curve.

For data set [1] the following is noted: clinical studies; cited from earlier work.
The test system of data set [2] is rat ANIT-induced cholestasis model. Description: PK/PD modeling of effective exposure in rat ANIT model. It counts as in vivo. Particulars: for IC80 (total bilirubin): 2-week rat ANIT chronic treatment model, serum total bilirubin, Inhibitory effect Imax model. How it is done:
(§1) Male Wistar rats were treated with ANIT (0.1% ANIT in chow diet) for 2 weeks. […] The serum samples were collected on day 14 for analysis of biomarkers of hepatobiliary injury (including ALT, AST, bilirubin and bile acids). The PK samples (pre-dose, 0.5, 1, 3, 7, 10 and 24 h, n=3/dose group) were taken on day 13 (at steady-state).
The mean biomarker data were compared to the PK data (average concentration at each dose) for the modeling. The IC80 was determined using the Inhibitory effect Imax model (effect C=0 at Imax, C=infinity at E0) built in Phoenix WinNonlin 6.3 software. […] Therefore, we chose to use a mean of the IC80 for the four biomarkers (total bilirubin, total bile acids, ALT and AST) as the IC80 for efficacy in this model. From these studies, the IC80 of LJN452 was 0.127 ng/ml and the corresponding AUCO-24h was 3.05 ng*h/ml (Table 1), and the corresponding efficacious dose is approximately 0.01 mg/kg (based on Table 1 and Table 2).
The PK samples (pre-dose, 0.5, 1, 3, 7, 10 and 24 h, n=3/dose group) were taken on day 13 (at steady-state). AUCO-24h was determined using Phoenix WinNonlin 6.3 software and the average concentrations were calculated from mean of AUCO-24h at each dose (divided the AUCO-24h by 24 h). The individual biomarker data were compared to the PK data (average concentration at each dose) for the modeling. Since the lowest dose (0.01 mg/kg) already approached maximal efficacy, the IC80 was chosen as the measurement of the efficacious exposure (Table 1). The IC80 was determined using the Inhibitory effect Imax model (effect C=0 at Imax, C=infinity at E0) built in Phoenix WinNonlin 6.3 software.

A short description of data set [3]: Multiple oral dose plasma pharmacokinetics in healthy subjects.
Data set [4] has as its system FGF15. Description: Serum FGF15 (MSD assay) in chronic treatment rat ANIT model. It counts as in vivo. Here is the method: Serum FGF15 levels were quantified using an FGF15 Meso Scale Discovery (MSD) assay. Mouse FGF15 antibody from R&D Systems (AF6755) was used both as capture and detection antibody in the assay. MSD SULFO-TAG NHS-Ester was used to label the FGF15 antibody. MSD standard 96-well plates were coated with the FGF15 capture antibody and the plates were blocked with MSD Blocker A (R93AA-2). After washing the plate with PBS+0.05% Tween 20, MSD diluent 4 was dispensed into each well and incubated for 30 min. 25 μl of calibrator dilutions or samples (serum or EDTA plasma) were dispensed into each well and incubated with shaking at RT. After washing, detection antibody was added and incubated with shaking for 1 h at RT. After washing and the addition of MSD Read buffer (R92TC-2), the plate was read on an MSD SECTOR Imager 6000. Plots of the standard curve and unknown samples were calculated using MSD data analysis software.
Activation of FXR in the ileum induces the expression of fibroblast growth factor 15 (FGF15 in rodent; FGF19 in human), a hormone that is secreted in the portal blood and signals to the liver to repress Cyp7a1 expression synergistically with SHP. The direct FXR-dependent induction of FGF15/19 along with FGF15/19's anti-cholestatic properties makes it a convenient serum biomarker for detecting target engagement of FXR agonists.

Data set [5] is described as follows: Safety and tolerability in clinical study. It counts as in vivo, human. From the text:
Elevated ALT resolved to within normal levels within 14 days and without intervention.

The test system of data set [6] is FGF19.
Data set [7] can be described thus: Single oral dose plasma pharmacokinetics in healthy subjects. It counts as in vivo, human. The settings on record: fasted, mean.
For data set [8], the system named is rat ANIT-induced cholestasis model. The data set can be described thus: Chronic treatment rat ANIT model: serum markers of cholestasis and liver damage. The class given is in vivo. Particulars: 14 days oral dosing; AST, ALT, bilirubin, bile acids in serum. Here is the method:
Rats were treated with alpha-naphthyl-isothiocyanate (ANIT) (0.1% w/w) in food for 3 days prior to treatment with the compound at the indicated doses or with vehicle control (“Veh”). A non-cholestatic control group was fed standard chow diet without ANIT, and serve as the non-cholestatic control animals (“Control”). After 14 days of oral dosing, the indicated analyte was measured in serum. LLQ, lower limit of quantitation. Mean±SEM; n=5.
as §1

For data set [9], the system named is FGR5. The data set can be described thus: FGR5 effects.
Data set [10] can be described thus: Estimation of human efficacious dose from rat efficacious exposure and human PK. It counts as in vivo. The settings on record: human, plasma, oral; at dose of ~6 μg; read-out: Cmax at estimated human efficacious dose. Here is the method:
The human efficacy dose was calculated based on the efficacious exposure in the rat ANIT-induced disease model. Since the in vitro potency and protein binding between human and rat were similar, the EC80 exposure in human was assumed to be the same as that in rat (3.05 ng*h/mL).

Where [11] appears, read: maximal drug effect, rat ANIT model.
The mark [12] stands for this setting: exposures for doses 10-100 μg normalized to 10 μg.

Turning to `CC[C@H]1[C@@H](O)[C@@H]2[C@H](CC[C@]3(C)[C@@H]([C@H](C)CCC(=O)O)CC[C@@H]23)[C@@]2(C)CC[C@@H](O)C[C@@H]12` [OCA, 6α-ethyl-chenodeoxycholic acid], in data set [1], the pruritus result is reported as “increased pruritus”.
Regarding `O=C(O)c1cc(F)c2nc(N3C4CC[C@H]3CC(OCc3c(-c5ccccc5OC(F)(F)F)noc3C3CC3)C4)sc2c1` (stereo partly drawn) [Compound A, 2-[(1R,3r,5S)-3-({5-cyclopropyl-3-[2-(trifluoromethoxy)phenyl]-1,2-oxazol-4-yl}methoxy)-8-azabicyclo[3.2.1]octan-8-yl]-4-fluoro-1,3-benzothiazole-6-carboxylic acid], the “IC80 (total bilirubin)” value in [2] turned out to be 0.223 ng/mL (≈ 0.369 nM). Further, the “IC80 (total bilirubin)” value in data set [2] (listed as LJN452) turned out to be 8.223 ng/mL (≈ 13.6 nM). Also, in data set [2] (setting [11]), the “Imax (ALT)” value is 84.2 U/L, the “Imax (AST)” value is reported as 140.3 U/L, the “Imax (total bile acids)” value was 125.5 µmol/L and the “Imax (total bilirubin)” value is reported as 2.0 mg/dL. In addition, in data set [3] (setting [12]), the “average AUCtau at day 13 for a dose level of 10 μg” value stood at 4.84 ng·h/mL and the “average Cmax at day 13 for a dose level of 10 μg” value came out at 0.32 ng/mL. In addition, the “dose proportionality of exposure (Cmax and AUC)” value in data set [3] (once daily dosing, dose range 10 μg to 100 μg) was “approximately dose-proportional increase; also recorded: approximately dose proportional increase”. Besides, the “time by which steady-state was reached” value in data set [3] (once daily oral dosing, trough levels) was at most 4 days. Further, in data set [4], the “serum FGF15” value is listed as “stimulated serum FGF15 expression; also recorded: Significant dose-dependent induction”. Moreover, the “ALP or bilirubin elevation” value in [5] (100 μg repeated daily) is given as “no elevation”. In addition, the “findings in physical exam, vital signs or ECGs” value in [5] (clinical study) is given as “No significant findings”. The “tolerability in repeated daily administration” value in data set [5] (doses up to and including 60 μg) was “well tolerated”. Besides, in [6] (30 μg/day), the FGF19 elevations entry is reported as “consistent with pharmacological activity in NASH”. For the same molecule, in data set [6] (single dose studies 10 μg to 1 mg), the FGF19 dose dependence result is reported as “Dose-dependent increases”. In [7] (single dose 10 μg), the AUCinf amounted to 3.39 ng·h/mL, the AUClast came out at 2.79 ng·h/mL, the Cmax came to 0.186 ng/mL and the T½ came to 14.9 h. In [7] (single dose 30 μg), the AUCinf was 13.4 ng·h/mL, the AUClast worked out at 12.7 ng·h/mL, the Cmax amounted to 0.627 ng/mL and the T½ stood at 13.7 h. In data set [7] (single dose 100 μg), this molecule registered an AUCinf of 37.9 ng·h/mL, an AUClast of 34.8 ng·h/mL, a Cmax of 1.73 ng/mL and a T½ of 13.5 h. Also, in data set [7] (single dose 300 μg), the AUCinf is 123 ng·h/mL, the AUClast amounted to 119 ng·h/mL, the Cmax was 6.41 ng/mL and the T½ turned out to be 15.3 h. In data set [7] (single dose 1000 μg), this molecule yielded an AUCinf of 482 ng·h/mL, an AUClast of 416 ng·h/mL, a Cmax of 22.1 ng/mL and a T½ of 21.9 h. For the same molecule, in [7] (single dose 3000 μg), the AUCinf is 933 ng·h/mL, the AUClast was found to be 888 ng·h/mL, the peak concentration (Cmax) came to 54.2 ng/mL and the T½ stood at 16.5 h. In addition, the “dose from which hepatobiliary injury indicators improved” value in [8] is listed as at least 0.01 mg/kg. For the same molecule, the FGR5 effects entry in [9] is listed as “no FGR5 effects”. In addition, in data set [10], the Cmax is around 0.2 ng/mL.
